One experiment concerns HT1080 cells. Briefly: Cellular assay, inhibition of 2-HG production in HT1080 cells. The class given is cell-based. The conditions noted are these: Homo sapiens, HT-1080, 48 h. As to the method:
Cells (HT1080 or U87MG) are grown in T125 flasks in DMEM containing 10% FBS, 1× penicillin/streptomycin and 500 ug/mL G418 (present in U87MG cells only). They are harvested by trypsin and seeded into 96 well white bottom plates at a density of 5000 cell/well in 100 ul/well in DMEM with 10% FBS. […] Cells are incubated overnight at 37° C. in 5% CO2. The next day test compounds are made up at 2× the final concentration and 100 ul are added to each cell well. The final concentration of DMSO is 0.2% and the DMSO control wells are plated in row G. The plates are then placed in the incubator for 48 hours. […] The cell plate is placed back in the incubator for another 24 hours. At 72 hours post compound addition, 10 mL/plate of Promega Cell Titer Glo reagent is thawed and mixed. The cell plate is removed from the incubator and allowed to equilibrate to room temperature. Then 100 ul of Promega Cell Titer Glo reagent is added to each well of media. The cell plate is then placed on an orbital shaker for 10 minutes and then allowed to sit at room temperature for 20 minutes. The plate is then read for luminescence with an integration time of 500 ms.

The target of another experiment is IDH1 R132H (Homo sapiens (Human), UniProt O75874, R132H). Briefly: In vitro NADPH depletion assay for IDH1m R132H inhibitors. The class given is biochemical. Particulars: IDH1 R132H enzyme, read-out: IDH R132H IC50. As to the method: A test compound is prepared as 10 mM stock in DMSO and diluted to 50× final concentration in DMSO, for a 50 μl reaction mixture. IDH enzyme activity converting alpha-ketoglutarate to 2-hydroxyglutaric acid is measured using a NADPH depletion assay. In the assay the remaining cofactor is measured at the end of the reaction with the addition of a catalytic excess of diaphorase and resazurin, to generate a fluorescent signal in proportion to the amount of NADPH remaining. […] The reaction is started with the addition of 10 μl of Substrate Mix ([…], 5 mM alpha-ketoglutarate, in Assay Buffer) and the mixture is incubated for 90 minutes at room temperature.

For the next experiment, the system named is U87MG cells. The experiment in a line: Cellular assay, inhibition of 2-HG production in U87MG cells. The class given is cell-based. Particulars: Homo sapiens, U-87 MG, 48 h. In short, it runs like this:
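HT1080 or U87MG cells (U87MG kept with 500 ug/mL G418) seeded at 5000 cells/well and treated with compound at 0.2% final DMSO. Incubated 48 h at 37 °C. 2-HG inhibition determined by LC-MS. Viability read by CellTiter-Glo luminescence at 72 h post-dose.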

Where only a bound is given, the exact number is not on record here.

IDH1 R132H, sequence (O75874 whole entry R132H): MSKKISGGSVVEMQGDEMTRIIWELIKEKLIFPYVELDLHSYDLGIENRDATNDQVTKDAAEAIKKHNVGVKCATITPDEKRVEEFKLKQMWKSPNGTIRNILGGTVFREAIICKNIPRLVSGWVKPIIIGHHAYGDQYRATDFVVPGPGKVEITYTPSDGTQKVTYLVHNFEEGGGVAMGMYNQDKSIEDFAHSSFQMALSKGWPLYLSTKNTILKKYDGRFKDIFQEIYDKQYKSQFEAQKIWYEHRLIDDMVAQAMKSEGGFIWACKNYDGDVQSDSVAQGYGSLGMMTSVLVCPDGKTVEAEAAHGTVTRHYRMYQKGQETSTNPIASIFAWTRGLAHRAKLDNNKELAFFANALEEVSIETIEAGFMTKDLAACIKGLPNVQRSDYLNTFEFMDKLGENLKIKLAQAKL

Broadly, the IC50 is the point on the concentration scale where inhibition reaches its midpoint. For the compound `N#Cc1ccnc(N2C(=O)OCC[C@H]2C(=O)N(c2cncc(F)c2)C(C(=O)NC2CC(F)(F)C2)c2ccccc2F)c1` (stereo in doubt) [Compound 302, (S)-3-(4-cyanopyridin-2-yl)-N—((R)-2-(3,3-difluorocyclobutylamino)-1-(2-fluorophenyl)-2-oxoethyl)-N-(5-fluoropyridin-3-yl)-2-oxo-1,3-oxazinane-4-carboxamide], the IC50 in the experiment with HT1080 cells and at IDH1 R132H was under 100 nM each time.

For the compound `O=C(NC1CC(F)(F)C1)[C@H](c1ccccc1Cl)N(C(=O)[C@@H]1CCC(=O)N1c1nccc2ccccc12)c1cccc(F)c1` [Compound 16], the 50% inhibitory concentration (IC50) is 100 to 500 nM with HT1080 cells and 500 to 1000 nM in the experiment on U87MG cells.

Take `O=C(NC1CC(F)(F)C1)[C@H](c1ccccc1Cl)N(C(=O)[C@@H]1COCC(=O)N1c1ncccn1)c1cccc(F)c1` [Compound 45]: the IC50 with HT1080 cells and in the experiment with U87MG cells was 100 to 500 nM in each case.

Consider `N#Cc1ccnc(N2C(=O)OCC[C@H]2C(=O)N(c2cncc(F)c2)C(C(=O)NC2CC(F)(F)C2)c2ccccc2)c1` (stereo in doubt) [Compound 301, (S)-3-(4-cyanopyridin-2-yl)-N—((R)-2-((3,3-difluorocyclobutyl)amino)-2-oxo-1-phenylethyl)-N-(5-fluoropyridin-3-yl)-2-oxo-1,3-oxazinane-4-carboxamide], for which the half-maximal inhibitory concentration (IC50) in the experiment on HT1080 cells and at IDH1 R132H was under 100 nM throughout.

For `O=C(NC1CC(F)C1)[C@H](c1ccccc1Cl)N(C(=O)[C@@H]1CCC(=O)N1c1ncccn1)c1cccc(F)c1` (stereo partly shown) [Compound 49], the IC50 in the experiment on HT1080 cells and in the experiment with U87MG cells was 100 to 500 nM throughout.

Take `Cc1cccnc1N1C(=O)CC[C@H]1C(=O)N(c1cccc(F)c1)[C@H](C(=O)NC1CC(F)(F)C1)c1ccccc1Cl` [Compound 15]: the IC50 in the experiment with HT1080 cells and with U87MG cells was 100 to 500 nM each time.

`N#Cc1cccc(N(C(=O)[C@@H]2CCC(=O)N2c2nccc(C#N)n2)[C@H](C(=O)NC2CCC(F)(F)CC2)c2ccccc2Cl)c1` [Compound 178, (S)—N—((S)-1-(2-Chlorophenyl)-2-((4,4-difluorocyclohexyl)amino)-2-oxoethyl)-N-(3-cyanophenyl)-1-(4-cyanopyrimidin-2-yl)-5-oxopyrrolidine-2-carboxamide]: the IC50 in the experiment on HT1080 cells is 100 to 500 nM; in the experiment with U87MG cells, under 100 nM.

Take `N#Cc1ccnc(N2C(=O)CC[C@H]2C(=O)N(c2cccc(F)c2)[C@H](C(=O)NC2CC(F)(F)C2)c2c(Cl)cccc2Cl)c1` (single isomer, unassigned) [Compound 63]: the IC50 in the experiment with HT1080 cells and in the experiment with U87MG cells was under 100 nM throughout.

The values are drawn from patent US10689414B2 (Agios Pharmaceuticals, Inc., priority 2013, dated 2020).
